Assay results published in PubChem BioAssay (NCI).
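Each compound was tested at five concentrations against cells in 96-well plates for 48 hours. GI50: concentration for 50% inhibition of growth. At the TGI there is no net growth.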

Assays:
Assay in all cases: DTP human tumour cell line panel, 48 h
HL-60(TB) leukemia = tested on: HL-60(TB) leukemia
SK-MEL-28 melanoma = tested on: SK-MEL-28 melanoma
SK-OV-3 ovarian = tested on: SK-OV-3 ovarian
HCT-116 colon = tested on: HCT-116 colon
NCI-H522 lung = tested on: NCI-H522 lung
ACHN renal = tested on: ACHN renal
CAKI-1 renal = tested on: CAKI-1 renal
TK-10 renal = tested on: TK-10 renal
SW-620 colon = tested on: SW-620 colon
EKVX NSCLC = tested on: EKVX NSCLC

Row | Structure (SMILES) | TGI (HL-60(TB) leukemia) | TGI (SK-MEL-28 melanoma) | TGI (SK-OV-3 ovarian) | TGI (HCT-116 colon) | TGI (NCI-H522 lung) | TGI (ACHN renal) | TGI (CAKI-1 renal) | TGI (TK-10 renal) | TGI (SW-620 colon) | GI50 (HL-60(TB) leukemia) | GI50 (SK-MEL-28 melanoma) | GI50 (SK-OV-3 ovarian) | GI50 (NCI-H522 lung) | GI50 (ACHN renal) | GI50 (CAKI-1 renal) | GI50 (TK-10 renal) | GI50 (EKVX NSCLC) | TGI (EKVX NSCLC) | GI50 (SW-620 colon) | GI50 (HCT-116 colon)
1 | CC[C@@H]1ON(C)[C@H]2CN(C)C(=O)[C@@H]12 | > 100 µM | > 100 µM | > 100 µM | > 100 µM | > 100 µM | > 100 µM | > 100 µM | > 100 µM | > 100 µM | – | – | – | – | – | – | – | – | – | – | –
2 | c1ccc(N2N=C(c3cccc(Nc4ccncc4)c3)CC2c2ccc3c(c2)OCO3)cc1 (stereo not given) | 3.69 µM | 3.14 µM | 10.2 µM | – | 3.48 µM | 3.21 µM | 2.69 µM | 3.99 µM | 2.54 µM | 1.77 µM | 1.66 µM | 2.73 µM | 1.61 µM | 1.64 µM | 1.3 µM | 1.94 µM | 2.66 µM | 11 µM | 1.18 µM | –
3 | C=C(C)C(=O)O[C@H]1CC2=C[C@@H](C[C@@]3(C)O[C@@H]3[C@H]3OC(=O)C(=C)[C@@H]31)OC2=O | 1.12 µM | 3.61 µM | 34.9 µM | 4.61 µM | 1.71 µM | – | 6.25 µM | – | 1.94 µM | – | 1.24 µM | – | – | – | 2.63 µM | – | – | 4.82 µM | – | 1.4 µM
4 | COc1ccc2c(c1O)-c1cc(O)cc3c1[C@@H](C2)N(C)CC3 | 191 µM | 157 µM | 289 µM | 49.9 µM | 255 µM | – | 142 µM | – | 145 µM | – | – | – | – | – | – | – | – | 187 µM | – | –
5 | COc1cc(C2S/C(=C/c3ccccc3)C(=O)N2c2ccc(NC(C)=O)cc2)cc(OC)c1OC (stereo not given) | – | > 100 µM | > 100 µM | 26.1 µM | 26.6 µM | 77.8 µM | 72.4 µM | > 100 µM | – | – | – | – | – | – | – | – | – | 38.4 µM | – | –
6 | COc1nc2ccc(COc3ccc(C(=O)NC(CCC(=O)O)C(=O)O)cc3)cc2nc1OC (stereo not given) | > 10 µM | > 10 µM | > 10 µM | – | > 10 µM | > 10 µM | > 10 µM | > 10 µM | > 10 µM | – | – | – | – | – | – | – | – | > 10 µM | – | –
7 | NC(=S)N/N=C/c1nccc2ccccc12 | 4.23 µM | > 100 µM | 8.52 µM | > 100 µM | 5.24 µM | 1.01 µM | 58.7 µM | > 100 µM | > 100 µM | – | – | – | – | – | – | – | – | – | – | –
8 | Cc1nc2c(c(=O)[nH]1)S/C(=C(/C#N)c1nc3ccccc3[nH]1)N2c1ccccc1 | > 100 µM | > 100 µM | > 100 µM | > 100 µM | > 100 µM | > 100 µM | > 100 µM | > 100 µM | > 100 µM | – | – | – | – | – | – | – | – | > 100 µM | – | –
9 | O=C1C(Cl)N(c2cccc(Cl)c2)C1c1c[nH]c2ccccc12 (stereo not given) | > 100 µM | > 100 µM | > 100 µM | > 100 µM | > 100 µM | – | – | > 100 µM | > 100 µM | – | – | – | – | – | – | – | – | > 100 µM | – | –
